Key:
[1] = tested on: 4 mm punch wound on the dorsal surface; assay: Topical applications for wound healing in mice (4 mm punch wound, three dietary groups); format: in vivo, Balb/c mice; details: 100 μM topical, in place of uracil; with or without CCM; four times over two weeks
Description: Balb/c mice were divided into three dietary groups (F=normal mouse chow; NF=nucleotide free mouse chow; and NFR=nucleotide free mouse chow supplemented with yeast RNA). Each group was fed before initiation of wounds. After 4 weeks of feeding, a 4 mm punch wound was created on the dorsal surface of each mouse, using a 4 mm biopsy punch. The wounds were coated with four different topical agents: (1) saline; (2) uracil ([…]); (3) saline+CCM; and (4) Uracil+CCM (CCM=crosslinked collagen mesh). CCM (“Collagen Permeable Membrane”) from Accurate Chemical & Scientific Corporation, Catalog No. YIC 152299. Four mm size circles were soaked with appropriate nucleotide or saline solution (4 mm punch wounds) and used to dress the wounds.
Twelve groups were formed from these combinations (n=3). Mice were continued on their respective diets. Wounds were observed visually and photographed at four different times during the period of two weeks. These studies were repeated using a 100 μM concentration of inosine in place of uracil as the topical agent.

[2] = tested on: 8 mm full thickness dorsal skin punch wound; assay: Sirolimus dose response on healing of a full thickness skin punch wound; format: in vivo, Balb/c mice
Description: Sirolimus is an effective immunosuppressant that has been associated with delayed wound healing. On a full thickness skin murine model of immunosuppression and decreased wound healing, the Sirolimus dose that delayed wound healing was first determined.
Methods: For 2 weeks Balb/c mice were gavage-fed saline, 4 mg/kg, 8 mg/kg or 12 mg/kg Sirolimus (10 per group). After drug loading, an 8 mm in diameter full thickness dorsal skin punch wound was made in each mouse. Every second day digital pictures of the wound were taken and analyzed. After determining the effective Sirolimus dose that causes decreased wound healing and immunosuppression, 40 Balb/c mice were gavaged with 8 mg/kg of Sirolimus every other day. After establishing the punch wounds, the mono and dinucleotides were applied topically daily. The topical treatment was applied using the following formulations (10 mice per group): a mixture of mono and dinucleotides derived from RNA in 0.025%, 0.25% and 2.5% concentrations and one group with KY jelly as control. Every second day a digital picture was taken and wound size measured. P2Y2 receptor expression was qualitatively assessed using immunohistology and receptor specific antibodies. T-test was used to compare the groups.

effect on wound healing ([2]; 4 mg/kg gavage for 2 weeks) | Compound | wound healing, wounds observed visually and photographed [1] | effect on wound healing ([2]; 8 mg/kg gavage for 2 weeks, day 4 and after) | effect on wound healing ([2]; 12 mg/kg gavage for 2 weeks, day 4 and after)
 | OC[C@H]1O[C@@H](n2cnc3c(O)ncnc32)[C@H](O)[C@@H]1O [inosine] | no significant differences from that which was seen with the uracil |  | 
no effect on wound healing | CO[C@H]1C[C@@H]2CC[C@@H](C)[C@@](O)(O2)C(=O)C(=O)N2CCCC[C@H]2C(=O)O[C@H]([C@H](C)C[C@@H]2CC[C@@H](O)[C@H](OC)C2)CC(=O)[C@H](C)/C=C(\C)[C@@H](O)[C@@H](OC)C(=O)[C@H](C)C[C@H](C)/C=C/C=C/C=C/1C [Sirolimus] |  | delayed wound healing in a significant manner | delayed wound healing in a significant manner
